Consider 6 molecules from EP0205068B1, “Lysergic-acid amides, process for their preparation and medicaments containing them” (ARZNEIMITTELWERK DRESDEN GmbH, priority 1985, dated 1986).

The test system of assay [1] is Ratten. In words: SFT test (spinal cord fixation time). The format is in vivo. The source says: 4. SFT-Test (Spinal cord fixation time)
C.Giurgea und F.Mouravieff-Lesmisse Arch.Intern.Pharmacodyn.191 (1971) 279
Es ist die Anzahl der Tiere mit persistierender Asymmetrie zur Gesamtzahl der eingesetzten Ratten aufgeführt.

Assay [2] concerns vas deferens des Meerschweinchens. The assay is described as follows: Noradrenaline antagonism on isolated vas deferens. Particulars: Cavia porcellus, read-out: Hemmung (x̄ ± sx̄) in %. From the text:
5. Noradrenalin-Antagonismus
Noradrenalin-Antagonismus am vas deferens des Meerschweinchens

In assay [3] the test system is Maus. The assay is described as follows: Porsolt swim test (immobility duration). The format is in vivo.
In assay [4] the test system is transcallosal ausgelöster Potentiale. The assay is described as follows: Influence on transcallosally evoked potentials in awake rats fixed in a stereotactic apparatus. Type of assay: in vivo, weiblichen Wistarratten. Conditions: 1 mg/kg i.p. From the text:
3. Beeinflussung transcallosal ausgelöster Potentiale
Methodik in Anlehnung an C.Giurgea und F.Moyersoons, Arch.Int.Pharmacodyn.199,(1972) 67
Die Untersuchung wurde an wachen, im stereotaktischen Apparat fixierten weiblichen Wistarratten durchgeführt.

The subject of assay [5] is Vena femoralis. In words: Contraction of isolated human vessel preparations, vein. Also on record: species or system menschlichen. The source says: (§1) 6. Untersuchungen an isolierten menschlichen Gefäßpräparaten
(§2) (Vena und Arteria femoralis)
(§3) Glusa, E. und F. Markwardt, Pharmacolgy 24 (1982) 287 sowie Naunyn-Schmiedebergs-Arch. Pharmacol. 323 (1983) 101

The test system of assay [6] is Arteria femoralis. In words: Contraction of isolated human vessel preparations, artery. Details: species or system menschlichen.
Source text: as §1, §2, §3

“And” between values parts separate entries of the source, which are not always exact repeats. Equal values may be shown once.

Turning to `CC(=O)OCCN(CCOC(C)=O)C(=O)[C@@H]1C[C@@H]2c3cccc4[nH]cc(c34)C[C@H]2N(C)C1` [1 a, 9,10-Dihydrolysergsäure-bis-(β-acetoxyethyl)amid], in assay [1] (Dosis ip. 2 mg/kg), the “Anzahl der Tiere mit persistierender Asymmetrie zur Gesamtzahl der eingesetzten Ratten” value is given as 5/10. The inhibition at 10 µM in assay [2] (Konzentration 10^-5 mol/l) turned out to be 60.7%. Moreover, the inhibition at 1 µM in assay [2] (Konzentration 10^-6 mol/l) was 14.7%. Also, the inhibition at 0.1 µM in assay [2] (Konzentration 10^-7 mol/l) stood at 4.4%. In assay [3] (1 mg/kg i.p.), the “Immobilitätsdauer (sec) x̄ ± sx̄” value is 202,6 ± 1,8 sec. The “Amplitudenbeeinflussung b.max.Reizintensität neg.Welle” value in assay [4] (60') is reported as 0,40±0,03 µV; in assay [4] (120'), “*0,40±0,02 µV”; in assay [4] (180'), 0,39±0,02 µV; in assay [4] (VW = Vorwert (pre-dose value)), 0,34±0,03 µV. Also, the “Amplitudenbeeinflussung b.max.Reizintensität pos.Welle” value in assay [4] (60') is given as 0,42±0,03 µV; in assay [4] (120'), 0,41±0,02 µV; in assay [4] (180'), 0,42±0,02 µV; in assay [4] (VW = Vorwert (pre-dose value)), 0,38±0,03 µV. Besides, the “Amplitudenbeeinflussung b.mittl.Reizintensität neg.Welle” value in assay [4] (60') was 0,23±0,03 µV; in assay [4] (120'), “*0,25±0,03 µV”; in assay [4] (180') it was 0,23±0,03 µV; in assay [4] (VW = Vorwert (pre-dose value)), 0,18±0,02 µV. In addition, the “Amplitudenbeeinflussung b.mittl.Reizintensität pos.Welle” value in assay [4] (60') is listed as “*0,26±0,03 µV”; in assay [4] (120'), “*0,27±0,03 µV”; in assay [4] (180') it was “*0,25±0,02 µV”; in assay [4] (VW = Vorwert (pre-dose value)), 0,19±0,02 µV. For the same molecule, the “pharmakologisch wertvolle Nebenwirkungen” value in assay [5] (statement in words) was “Tonisierung der Venen”.
Consider `CC(=O)OCCN(CCOC(C)=O)C(=O)[C@@H]1C[C@@H]2c3cccc4c3c(cn4C)C[C@H]2N(C)C1` [1 c, 1-Methyl-9,10-dihydrolysergsäure-bis-(ß-acetoxyethyl)-amid], for which the “Immobilitätsdauer (sec) x̄ ± sx̄” value in assay [3] (3 mg/kg p.o.) is on record as 203,6 ± 5,9 sec.
In the case of `CCC(=O)OCCN(CCOC(=O)CC)C(=O)[C@@H]1C[C@@H]2c3cccc4c3c(cn4C)C[C@H]2N(C)C1` [1 e, 1-Methyl-9,10-dihydrolysergsäure-bis-(ß-propionylethyl)-amid], the “Immobilitätsdauer (sec) x̄ ± sx̄” value in assay [3] (3 mg/kg p.o.) is listed as 210,0 ± 3,8 sec.
`CC(=O)OCCN(CCOC(C)=O)C(=O)[C@@H]1C[C@@H]2c3cccc4c3c(cn4Cc3cccc(F)c3)C[C@H]2N(C)C1` [1 l, 1-(3'-Fluorbenzyl)-9,10-dihydrolysergsäure-bis-(ß-acetoxyethyl)-amid]: the “Immobilitätsdauer (sec) x̄ ± sx̄” value in assay [3] (1 mg/kg i.p.) is 199,4 ± 2,3 sec.
With `CN1C[C@H](C(=O)N[C@]2(C)O[C@@]3(O)[C@@H]4CCCN4C(=O)[C@H](Cc4ccccc4)N3C2=O)C[C@@H]2c3cccc4[nH]cc(c34)C[C@H]21` [Dihydro-ergo-tamin], the “%-Kontraktion bezogen auf NA” value in assay [5] was 61 ± 24% and 52 ± 18%; in assay [6], 8,8 ± 8%.
For the molecule `CO[C@]12C[C@@H](COC(=O)c3cncc(Br)c3)CN(C)[C@@H]1Cc1cn(C)c3cccc2c13` [Nicergolin, 10a-Methoxy-1,6-dimethyl-ergolin-8ß-methanol-(5'-bromnicotinat), reference compound], the figures for the “Anzahl der Tiere mit persistierender Asymmetrie zur Gesamtzahl der eingesetzten Ratten” value in assay [1] (Dosis ip. 1 mg/kg) and in assay [1] (Dosis ip. 3 mg/kg) were 2/10 and 4/6, respectively. For the same molecule, the “Immobilitätsdauer (sec) x̄ ± sx̄” value in assay [3] (1 mg/kg i.p.) is reported as 196,7 ± 5,6 sec. The “Amplitudenbeeinflussung b.max.Reizintensität neg.Welle” value in assay [4] (60') was 0,41±0,03 µV; in assay [4] (120'), 0,38±0,02 µV; in assay [4] (180'), 0,39±0,04 µV; in assay [4] (VW = Vorwert (pre-dose value)), 0,39±0,02 µV. In addition, the “Amplitudenbeeinflussung b.max.Reizintensität pos.Welle” value is given as 0,40±0,02 µV in assay [4] (60'), 0,36±0,02 µV in assay [4] (120'), 0,39±0,04 µV in assay [4] (180') and 0,39±0,02 µV in assay [4] (VW = Vorwert (pre-dose value)). Moreover, the “Amplitudenbeeinflussung b.mittl.Reizintensität neg.Welle” value in assay [4] (60') is listed as 0,24±0,02 µV; in assay [4] (120') it was 0,23±0,02 µV; in assay [4] (180'), 0,21±0,01 µV; in assay [4] (VW = Vorwert (pre-dose value)), 0,23±0,02 µV. For the same molecule, the “Amplitudenbeeinflussung b.mittl.Reizintensität pos.Welle” value is recorded as 0,24±0,01 µV in assay [4] (60'), 0,22±0,02 µV in assay [4] (120'), 0,19±0,02 µV in assay [4] (180') and 0,23±0,02 µV in assay [4] (VW = Vorwert (pre-dose value)).
